The test system of one experiment is NCI-H295R cells. Description: Cholesterol and cholesteryl ester content (LC-MS/MS) of mitochondrial and lipid droplet fractions of NCI-H295R cells treated with SC-26196. Type of experiment: cell-based, Human. The method, then: NCI-H295R cells (obtained from ATCC Cat# CRL-2128) were maintained in DMEM/F12 medium supplemented with 2.5 % Nu-Serum type I (Corning), 1 % Insulin Transferrin Selenium (ITS; Gibco), 50 U/mL penicillin and 50 µg/mL streptomycin. They were treated for 18 h with 10 µM SC-26196 or DMSO. […]
Cells were trypsinized and pelleted by centrifugation (500xg, 5 min, 4 °C). The cells were gently resuspended in homogenization buffer (200 mM mannitol, 50 mM sucrose, 10 mM KCI, […] 25 mM HEPES, pH 7.4, 1 µM aprotinin, 10 µM leupeptin, 20 µM PMSF) and homogenized on ice with 20 strokes of tight Dounce homogenizer. The samples were then centrifuged (800xg, 10 min, 4 °C) to pellet the nuclei. […]
Fractions 10-12 (SDHB-positive) and 4-5 (HSL-positive) were considered as mitochondrial and lipid droplet fractions, respectively. Protein concentration was measured in the mitochondrial and lipid droplet pools with the BCA Protein Assay Kit (Thermo Fisher) and fractions were analyzed for cholesterol and CE concentrations.
For quantification of cholesterol and cholesteryl esters, equal volumes of mitochondria fractions (180 µL) were combined, cholesterol-2,3,4-^13C (5 nmol, […]) and SPLASH®Lipidomix® (3 µL, Avanti Polar Lipids Inc) spiked, and samples incubated for 15 min on ice. […]

In experiment [1] the test system is StAR, Cyp11a1, 3β-Hsd2, Cyp11b1, Cyp11b2. Description: mRNA expression of StAR and steroidogenic enzymes upon FADS2 inhibition (qPCR). Type of experiment: cell-based. To be noted: upon FADS2 inhibition (SC-26196). The method, then:
Adrenal glands or adrenal corteces were isolated from WT C57BL/6J mice, cleaned from the surrounding fat tissue and incubated in collagenase buffer (1.6 mg/ml collagenase type I, 1.6 mg/ml BSA) for 45 min at 37 °C, while shaking at 900 rpm. Dissociated cells were passed through 22 G needle and a 100 µm cell strainer and centrifuged at 300 × g for 5 min at 4 °C. Cells of a pool from two adrenals of each mouse were distributed in four 0.2 % gelatin-precoated wells of a 96-well plate in DMEM/F12 supplemented with 1 % FBS, 50 U/mL penicillin and 50 µg/mL streptomycin. Two hours after seeding 10 µM SC-26196 (Tocris, Wiesbaden-Nordenstadt, Germany) or same amount of carrier (DMSO) were added without changing the medium. In some experiments medium was additionally supplemented with 150 µM ARA (Sigma Aldrich, Germany) or same amount of solvent (endotoxin-free water). […]
RNA was isolated from frozen tissues with the TRI Reagent (MRC, Cincinnati, USA) after mechanical tissue disruption or from cells with the RNeasy Mini Kit (Qiagen, Düsseldorf, Germany) according to manufacturer's instructions. […] Reverse transcription was performed with the iScript cDNA Synthesis kit (Biorad, Munich, Germany) and cDNA was analyzed by qPCR using the SsoFast Eva Green Supermix (Bio-Rad, Munich, Germany), a CFX384 real-time System C1000 Thermal Cycler (Bio-Rad) and the Bio-Rad CFX Manager 3.1 software.
For orientation: Quantitative PCR measures a nucleic acid by following its amplification.

Consider `N#CC(CCCN1CCN(/N=C/c2cccnc2)CC1)(c1ccccc1)c1ccccc1` [SC-26196], for which, in the experiment with NCI-H295R cells (SC-26196 18 h vs DMSO, forskolin (FSK, 1 µM) for 30 min, SDHB positive fractions), the “mitochondrial cholesterol levels upon forskolin stimulation” value is reported as “strong increase in mitochondrial cholesterol levels in control- but not SC-26196-treated cells”. For the same compound, the “cholesterol and CE in the lipid droplet (HSL positive) fractions” value in the experiment on NCI-H295R cells (SC-26196-treated cells) was “accumulated”. The “mRNA expression of StAR or steroidogenic enzymes (Cyp11a1, 3β-Hsd2, Cyp11b1, Cyp11b2)” value in experiment [1] is on record as “increased”.

These data come from patent EP4458352A1, “EICOSAPENTAENOIC ACID ESTER DERIVATIVES FOR THE TREATMENT OF OBESITY” (Technische Universität Dresden, priority 2023, dated 2024).
